One molecule from ChEMBL document CHEMBL1949560, “Plasmodium berghei proteome changes in response to SSJ-183 treatment” (2011) can be followed below.

Active and inactive are the calls of the source. The calls are words filed in the database; no cut-off is given here.

The test system of assay [1] is Plasmodium berghei. The assay is described as follows: Antimalarial activity against Plasmodium berghei NK-65 infected in ICR mouse assessed as parasitemia at 50 mg/kg, po administered 4 days post-infection measured after 18 hrs (reference value: 30 to 40%). Type of assay: functional.
For assay [2], the system named is Plasmodium berghei. The assay is described as follows: Down regulation of heat shock protein (gi68071723) in Plasmodium berghei NK-65 infected in ICR mouse at 50 mg/kg, po administered 4 days post-infection measured after 18 hrs in the host blood by 2D-gel electrophoresis. Type of assay: functional, organism-based. Details: dose 50 mg/kg.
The subject of assay [3] is Mus musculus. The experiment in a line: Down regulation of beta-actin in ICR mouse infected with Plasmodium berghei NK-65 at 50 mg/kg, po administered 4 days post-infection measured after 18 hrs in host blood by 2D-gel electrophoresis. It counts as functional, organism-based. Set-up: dose 50 mg/kg.
Assay [4] relates to Plasmodium berghei. The experiment in a line: Down regulation of […] precursor in Plasmodium berghei NK-65 infected in ICR mouse at 50 mg/kg, po administered 4 days post-infection measured after 18 hrs in the host blood by 2D-gel electrophoresis. Type of assay: functional, organism-based. Details: dose 50 mg/kg.
The test system of assay [5] is Plasmodium berghei. The experiment in a line: Down regulation of berghepain-2 in Plasmodium berghei NK-65 infected in ICR mouse at 50 mg/kg, po administered 4 days post-infection measured after 18 hrs in the host blood by 2D-gel electrophoresis. It counts as functional, organism-based. Set-up: dose 50 mg/kg.
Assay [6] concerns Plasmodium berghei. The assay is described as follows: Down regulation of hypothetical protein (gi68067763) in Plasmodium berghei NK-65 infected in ICR mouse at 50 mg/kg, po administered 4 days post-infection measured after 18 hrs in the host blood by 2D-gel electrophoresis. Details: dose 50 mg/kg. Type of assay: functional, organism-based.
In assay [7] the test system is Plasmodium berghei. The assay is described as follows: Down regulation of hypothetical protein (gi68064486) in Plasmodium berghei NK-65 infected in ICR mouse at 50 mg/kg, po administered 4 days post-infection measured after 18 hrs in the host blood by 2D-gel electrophoresis. Type of assay: functional, organism-based. Details: dose 50 mg/kg.
In assay [8] the test system is Mus musculus. The experiment in a line: Up regulation of unnamed protein product (gi74220592) in ICR mouse infected with Plasmodium berghei NK-65 at 50 mg/kg, po administered 4 days post-infection measured after 18 hrs in host blood by 2D-gel electrophoresis. Set-up: dose 50 mg/kg. It counts as functional, organism-based.
For assay [9], the system named is Mus musculus. The assay is described as follows: Up regulation of unnamed protein product (gi74005074) in ICR mouse infected with Plasmodium berghei NK-65 at 50 mg/kg, po administered 4 days post-infection measured after 18 hrs in host blood by 2D-gel electrophoresis. Details: dose 50 mg/kg. Type of assay: functional, organism-based.

`CCN(CC)c1ccc2nc3c4ccccc4/c(=N/c4ccncc4)cc-3oc2c1.Cl`: in the assay on Plasmodium berghei [1], the Activity amounted to 20%. Also, the result in the assay with Plasmodium berghei [2], in the assay with Mus musculus [3], in the assay with Plasmodium berghei [4], with Plasmodium berghei [5], in the assay with Plasmodium berghei [6] and with Plasmodium berghei [7] was Active. Further, the outcome with Mus musculus [8] and in the assay on Mus musculus [9] was Active.
